Measurements taken from patent US8846951B2 (AbbVie Inc., priority 2009, dated 2014).
Several values for one entry are separate records, joined by “and”; a condition that tells them apart may be missing. Identical values can stand only once. Entries after “also recorded” stand apart in the source; their conditions may differ.

Key:
h-5-HT6 receptor = target: T1, h-5-HT6 receptor (Homo sapiens, UniProt P50406); experiment: Human 5-HT6 receptor radioligand binding assay (HEK293 membranes, [3H]-LSD); details: HEK293 membranes expressing h-5-HT6 receptor, 1 nM [3H]-LSD; geometrical mean; read-out: Ki (5-HT6 Agonist Site Radioligand Binding)
T1 construct: expressed in transfected cells; host or cells: HEK293 cells (membranes)
Description: (v) Human 5-HT6 Receptor Radioligand Binding Assay
Preparation of Membranes by Ultrasonic Treatment and Differential Centrifugation
Cells from stable clonal cell lines expressing the corresponding receptor (5-HT6) were washed with PBS (without Ca^++, Mg^++) and harvested in PBS with 0.02% EDTA. The cells were collected by centrifugation at 500 g for 10 minutes at 4° C., washed with PBS and centrifuged (500 g, 10 minutes at 4° C.). The pellets were stored at −80° C. until use. For membrane preparation, the thawed cell pellet was resuspended in ice-cold sucrose buffer (0.25 M sucrose, 10 mM HEPES (pH 7.4), 1 mM phenylmethylsulfonyl fluoride (PMSF) in DMSO, 5 μg/ml Pepstatin-A, 3 mM EDTA, 0.025% Bacitracin) and homogenized with a Branson Sonifier W-250 (Settings: Timer 4; Output Control 3; Duty Cycle constant; 2 to 3 cycles). Cell disruption was checked with the aid of a microscope. Remaining unbroken cells were pelleted at 1,000 g for 10 minutes at 4° C. The sucrose buffer supernatant was then centrifuged at 60,000 g for 1 hour at 4° C. (Beckman Ultracentrifuge XL 80). The pellet was resuspended in 30 mL of ice-cold Tris buffer (20 mM TRIS (pH 7.4), 5 μg/mL Pepstatin A, 0.1 mM PMSF, 3 mM EDTA) by pipetting through a 10 mL serological pipette and centrifuged for 1 hour at 4° C. at 60,000 g. A final resuspension was performed in a small volume of ice-cold Tris buffer (see above) by pressing through a serological pipette followed by ultrasonic treatment with a Branson Sonifier W-250 (Settings: Timer 1; Output Control 3; Duty Cycle constant; 1 cycle). Protein concentration was determined (BCA-Kit; Pierce) and aliquots stored at −80° C. or in liquid nitrogen for long-term storage.
Receptor Binding Experiments
All receptor binding experiments were carried out in the corresponding assay buffer in a total volume of 200 μL in the presence of various concentrations of test compound (10^−5 M to 10^−9 M, tenfold serial dilution, duplicate determinations). The assays were terminated by filtration on polyethylenimine (PEI 0.1% or 0.3%) presoaked Packard Unifilter Plates (GF/C or GF/B) with a Tomtec MachIII U 96 well-plate harvester. After the plates had been dried for 2 hours at 55° C. in a drying chamber scintillation cocktail (BetaPlate Scint; PerkinElmer) was added. Radioactivity was measured in a Microbeta Trilux two hours after the addition of the scintillation mixture.
5-HT6 Receptor Binding Assay
HEK293 cells stably expressing the h-5-HT6 receptor (NCBI Reference Sequence XM 001435) were cultured in RPMI1640 medium supplemented with 25 mM HEPES, 10% fetal calf serum and 1-2 mM glutamine. The membrane preparation was performed as described above. […] On the day of the assay, the membranes were thawed, diluted in assay buffer (50 mM Tris-HCl, 5 mM CaCl2, 0.1% ascorbic acid, 10 μM pargyline, pH 7.4) to a concentration of 8 μg protein/assay and homogenized by gentle vortexing. […] Non-specific binding was defined with 1 μM methiothepin. The binding reaction was carried out for 3.5 hours at room temperature. During the incubation, the plates were shaken on a plate shaker at 100 rpm and terminated by filtration on Packard Unifilter GF/C (0.1% PEI) plates, followed by 2 wash cycles with ice-cold 50 mM Tris-HCl, 5 mM CaCl2.
Data derived from liquid scintillation counting were analyzed by iterative non-linear regression analysis with the use of the Statistical Analysis System (SAS): a program similar to “LIGAND” as described by Munson and Rodbard (Anal. Biochem. 1980, 107, 220-239). Fitting was performed according to formulae described by Feldman (Anal. Biochem. 1972, 48, 317-338). IC50 and Ki values were expressed as geometrical mean.

5HT2C receptors [1] = target: T2, 5HT2C receptors (Homo sapiens, UniProt P28335); experiment: Human 5-HT2C functional assay in CHO-K1 cells (96-well, calcium, FLIPR); assay type: cell-based; design: expressed in transfected cells; details: 5-HT2c agonist activity, CHO-K1 cells stably transfected
T2 sequence (P28335 33-458): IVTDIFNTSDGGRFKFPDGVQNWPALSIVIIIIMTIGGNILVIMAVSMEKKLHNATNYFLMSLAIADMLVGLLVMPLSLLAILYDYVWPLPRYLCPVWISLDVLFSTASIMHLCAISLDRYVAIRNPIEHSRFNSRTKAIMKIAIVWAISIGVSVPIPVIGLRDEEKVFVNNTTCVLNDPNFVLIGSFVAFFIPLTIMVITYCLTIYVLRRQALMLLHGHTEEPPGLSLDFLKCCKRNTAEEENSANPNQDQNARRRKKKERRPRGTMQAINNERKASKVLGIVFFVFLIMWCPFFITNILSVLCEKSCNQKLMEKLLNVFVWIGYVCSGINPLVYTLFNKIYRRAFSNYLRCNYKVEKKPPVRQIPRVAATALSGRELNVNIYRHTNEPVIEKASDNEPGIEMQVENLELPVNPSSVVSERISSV
Description: (iv) Human 5-HT2C Functional Assay in CHO-K1 Cells
Functional activity was determined by testing the effect of the compounds on intracellular calcium levels in CHO-K1 cells stably transfected with the human 5-HT2C receptor. Cells were seeded into 96-well plates at 60,000 cells/well and grown overnight in tissue culture medium (UltraCHO™ (Lonza), containing 1% dFCS, 250 μg/mL Zeocin, 400 μg/mL Geneticin) at 37° C. and 5% CO2. Growth medium was replaced by medium without dFCS for overnight incubation. Cells were loaded with a fluorescent calcium-sensitive dye in the presence of probenicid according to the manufacturer's protocol (FLIPR Ca4 Assay kit, Molecular Devices). Serial compound dilutions (final concentrations 10^−10 to 10^−5 M) were added to the cells and the maximum calcium response was determined using a FLIPR instrument (Molecular Devices). Concentration-response curves were fitted using a four-parameter logistic equation (GraphPad Prism). The concentration at which the compound exerts half its maximal effect is named the ‘effective concentration 50’ or ‘EC50’ and is listed in Table 5.

[2] = target: T3, human serotonin 5-HT2c receptor (Homo sapiens, UniProt P28335); experiment: Human 5-HT2C receptor radioligand binding assay (agonist site, [125I]DOI); details: 5-HT2c agonist site; transfected CHO cell membranes; 0.2 nM [125I](±)DOI
T3 construct: expressed in transfected cells; host or cells: CHO cells (membrane homogenates)
T3 sequence (P28335 33-458): T2 sequence (P28335 33-458)
Description: (i) Human 5-HT2C Receptor Radioligand Binding Assay
Affinity of compounds for the agonist site of the […], receptor in transfected CHO cells was determined in a radioligand binding assay essentially as described by Bryant, H. U., et al., Life Sciences (1996) 59(15), 1259-1268.

5HT2B receptors = target: T4, 5HT2B receptors (Homo sapiens, UniProt P41595); experiment: Human 5-HT2B functional high throughput screening assay in CHO-K1 cells (calcium flux); assay type: cell-based; details: for EC50: EC50, 5-HT2B agonist activity, CHO-K1 cells, calcium flux
T4 construct: expressed in transfected cells; host or cells: CHO-K1 cells
How it was run: (§1)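 Frozen CHO-K1 cells overexpressing the receptor were plated, serum-starved overnight, then loaded with Ca4 dye plus 2.5 mM probenecid for 60 min at room temperature. FLIPR fluorescence (ex 480/em 530 nm, 25 °C) after compound addition was normalized to serotonin; EC50 and Emax came from 4-parameter logistic fits.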

5HT2C receptors [3] = target: T2, 5HT2C receptors; experiment: Human 5-HT2C functional assay in 1321N1 cells (intracellular calcium, FLIPR); assay type: cell-based; design: expressed in transfected cells; host or cells: 1321N1 cells; details: 5-HT2c agonist activity, maximum calcium response
How it was run: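 1321N1 cells stably expressing human 5-HT2C were serum-starved overnight and loaded with Fluo-4 AM and 1% probenecid. Compounds (10^−10 to 10^−5 M) were tested alone or with 10^−9 M serotonin, and peak calcium was read by FLIPR. EC50 from four-parameter logistic fit.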

5HT2C receptors [4] = target: T2, 5HT2C receptors; experiment: Human 5-HT2C functional high throughput screening assay in CHO-K1 cells (calcium flux); assay type: cell-based; design: expressed in transfected cells; host or cells: CHO-K1 cells; details: for Emax: 5-HT2C, maximum functional response as percentage relative to the effect of serotonin; for EC50: EC50, 5-HT2C agonist activity, CHO-K1 cells, calcium flux
How it was run: as §1

[5] = tested on: AMP- or PCP-induced hyperactivity; experiment: Psychostimulant (AMP or PCP)-induced hyperlocomotion in mice; assay type: in vivo, mouse; details: for spontaneous activity: after ip test compound, before psychostimulant; for AMP-induced hyperactivity: test compound ip 30 min before d-amphetamine 2.0 mg/kg sc
Excerpt: (x) Assessment of Effects on Psychostimulant-Induced Hyperlocomotion in Mice
In both humans and experimental animals amphetamine (AMP) profoundly affects motor activity, sensorimotor function, sleep, attention, aggressive and sexual behaviors, learning and memory, operant behaviors, appetite and food intake. In addition, amphetamine induces psychotic reactions in normal individuals and exacerbates symptoms of schizophrenia in patients. In experimental animals several distinct behaviors are considered to be correlates of amphetamine psychosis. For example, amphetamine-induced hyperactivity in rodents is believed to model the psychotic symptoms of schizophrenia. Reversal of these behaviors is used to predict potential antipsychotic activity of drugs in pre-clinical studies.
In humans, phencyclidine (PCP) is known to produce a syndrome of behavioral effects which have many characteristics in common with schizophrenia. Therefore, antagonism of PCP effects might be evidence for antipsychotic efficacy of a compound.
Male NMRI mice (5-week old, Janvier, France) or C57BL/6J mice (6-week old, Janvier, France) were group housed and allowed ad-libitum access to food and water. A 12 hour light/dark cycle was imposed with lights-on period between 0530 and 1730 hours. All testing occurred between 700 and 1300 hours. All procedures were approved by Abbott Institutional Animal Care and Use Committee (USA) or Animal Welfare Officer (Germany) and were conducted in accordance with the National Institutes of Health Guide for Care and Use of Laboratory Animals guidelines and applicable national laws in the facilities accredited by the Association for the Assessment and Accreditation of Laboratory Animal Care.
On the day of experiment, animals were brought from the animal facility into the experimental room and were allowed to acclimatize for at least 30 minutes. Animals were then placed in the test cages for a habituation period of 60 minutes. The animals were then injected ip with the test compound and returned to the test cage. 30 Minutes later the mice were injected with d-amphetamine (2.0 mg/kg, AMP, Sigma, #A5880, sc) or phencyclidine (2.0 mg/kg, PCP, Sigma, #P3029, sc) Sigma, and returned to the test cages for 90 minutes. Each treatment group consisted of 8-10 animals. The data was acquired by Cage rack Photobeam system (SDI, San Diego Instruments, CA). The analyzed data were: fine movements, ambulations and total movements (fine+ambulations). Data was subjected to one- or two-way distribution-free ANOVA followed by Dunnett's and Tukey's post hoc tests.

T4 sequence (P41595 whole entry): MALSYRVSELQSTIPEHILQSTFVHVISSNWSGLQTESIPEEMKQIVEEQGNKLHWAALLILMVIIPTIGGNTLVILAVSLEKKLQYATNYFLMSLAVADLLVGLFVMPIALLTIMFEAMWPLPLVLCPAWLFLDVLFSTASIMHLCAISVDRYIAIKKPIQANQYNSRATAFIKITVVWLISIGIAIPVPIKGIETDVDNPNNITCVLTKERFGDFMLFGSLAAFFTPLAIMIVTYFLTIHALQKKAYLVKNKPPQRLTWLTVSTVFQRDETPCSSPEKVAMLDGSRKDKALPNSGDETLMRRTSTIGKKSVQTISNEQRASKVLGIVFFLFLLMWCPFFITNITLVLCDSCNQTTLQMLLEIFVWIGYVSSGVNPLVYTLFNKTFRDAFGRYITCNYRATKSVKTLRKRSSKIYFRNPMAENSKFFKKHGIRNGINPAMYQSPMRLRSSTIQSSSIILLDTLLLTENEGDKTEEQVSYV
T1 sequence (P50406 whole entry): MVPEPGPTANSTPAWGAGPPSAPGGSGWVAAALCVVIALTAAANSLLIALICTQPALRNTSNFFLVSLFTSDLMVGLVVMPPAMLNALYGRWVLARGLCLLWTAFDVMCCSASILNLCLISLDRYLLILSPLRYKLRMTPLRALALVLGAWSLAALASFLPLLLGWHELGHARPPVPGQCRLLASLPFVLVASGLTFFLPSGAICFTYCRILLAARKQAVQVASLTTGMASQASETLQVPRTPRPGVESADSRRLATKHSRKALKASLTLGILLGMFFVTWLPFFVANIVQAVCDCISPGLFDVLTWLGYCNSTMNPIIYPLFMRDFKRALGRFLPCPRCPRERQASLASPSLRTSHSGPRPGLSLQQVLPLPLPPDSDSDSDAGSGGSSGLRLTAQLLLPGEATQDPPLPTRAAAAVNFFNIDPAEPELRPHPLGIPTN

Compound | Ki (h-5-HT6 receptor) | EC50 (5HT2C receptors [1]) | Ki [2] | Emax (5HT2B receptors; CHO-K1) | EC50 (5HT2B receptors) | EC50 (5HT2C receptors [3]) | Emax (5HT2C receptors [4]; CHO-K1) | EC50 (5HT2C receptors [4]) | spontaneous activity [5] | AMP-induced hyperactivity [5] | Emax (5HT2B receptors; 5-HT2B, maximum functional response as percentage relative to the effect of serotonin) | Emax (5HT2C receptors [4])
COc1ccc(CN2C[C@H]3CN(S(=O)(=O)c4cccc(F)c4)Cc4ccccc4[C@@H]3C2)cc1 (relative stereo) [Example 73, Trans-5-(3-fluorophenylsulfonyl)-2-(4-methoxybenzyl)-1,2,3,3a,4,5,6,10b-octahydrobenzo[c]pyrrolo[3,4-e]azepine] | 14.3 nM | > 1000 nM |  |  |  |  |  |  |  |  |  | 
O=C1NC[C@@H]2CNC[C@H]2c2c(F)cccc21 (relative stereo) [Example 67, Trans-10-fluoro-1,2,3,3a,4,5-hexahydrobenzo[c]pyrrolo[3,4-e]azepin-6(10bH)-one] |  | 2.5 nM | 43 nM | 110% | 1000 nM and > 10000 nM | 6.55 nM | > 120% | 5 nM |  |  |  | 
O=C1NC[C@H]2CNC[C@@H]2c2c(F)cc(F)cc21 [Example 106, (3aR,10bS)-8,10-Difluoro-1,2,3,3a,4,5-hexahydrobenzo[c]pyrrolo[3,4-e]azepin-6(10bH)-one] |  |  |  | 95% | 100 nM |  | > 120% | 0.4 nM | without affecting spontaneous activity | modestly attenuated AMP-induced hyperactivity in mice in a dose dependent manner; also recorded: attenuating the affect of d-amphetamine (AMP) |  | 
O=C1NC[C@@H]2CNC[C@H]2c2cccc(F)c21 (single isomer, unassigned) [Example 62, Trans-7-fluoro-1,2,3,3a,4,5-hexahydrobenzo[e]pyrrolo[3,4-c]azepin-6(10bH)-one] |  | 0.3 nM | 8.2 nM |  | 700 nM |  |  | 1.2 nM |  |  | 80% | >120%
CN1C[C@H]2CNC[C@@H]2c2ccc(F)cc2C1=O [Example 225, (3aR,10bS)-8-Fluoro-5-methyl-1,2,3,3a,4,5-hexahydrobenzo[c]pyrrolo[3,4-e]azepin-6(10bH)-one] |  |  |  | 110% | 2000 nM |  | > 120% | 20 nM | without affecting spontaneous activity | modestly attenuated AMP-induced hyperactivity in mice; also recorded: attenuating the affect of d-amphetamine (AMP) |  | 
O=S(=O)(c1cccc(F)c1)N1Cc2ccccc2[C@@H]2CN(Cc3ccc(F)cc3)C[C@H]2C1 (relative stereo) [Example 74, Trans-2-(4-fluorobenzyl)-5-(3-fluorophenylsulfonyl)-1,2,3,3a,4,5,6,10b-octahydrobenzo[c]pyrrolo[3,4-e]azepine] | 9.81 nM | > 10000 nM |  |  |  |  |  |  |  |  |  | 
